Test results taken from patent publication US20240122182A1, “PESTICIDALLY ACTIVE HETEROCYCLIC DERIVATIVES WITH SULFUR CONTAINING SUBSTITUENTS” (SYNGENTA CROP PROTECTION AG, priority 2021, published 2024).

How the values were obtained:
Assay type in all cases: in vivo
[1] = tested on: Myzus persicae (Green Peach Aphid); assay: Activity against Myzus persicae (green peach aphid), feeding/contact activity; conditions: 144 h, application rate of 200 ppm, mixed ages, 6 days after infestation
Method: Sunflower leaf discs were placed onto agar in a 24-well microtiter plate and sprayed with aqueous test solutions prepared from 10′000 ppm DMSO stock solutions. After drying, the leaf discs were infested with an aphid population of mixed ages. The samples were assessed for mortality 6 days after infestation.

[2] = tested on: Chilo suppressalis (Striped Rice Stemborer); assay: Activity against Chilo suppressalis (striped rice stemborer), artificial diet; conditions: 144 h, application rate of 200 ppm, L2 larvae, 6 days after infestation, read-out: control (mortality, anti-feeding effect, growth inhibition)
Method: 24-well microtiter plates with artificial diet were treated with aqueous test solutions prepared from 10′000 ppm DMSO stock solutions by pipetting. After drying, the plates were infested with L2 larvae (6-8 per well). The samples were assessed for mortality, anti-feeding effect, and growth inhibition in comparison to untreated samples 6 days after infestation. Control of Chilo suppressalis by a test sample is given when at least one of the categories mortality, anti-feedant effect, and growth inhibition is higher than the untreated sample.

[3] = tested on: Diabrotica Balteata (Corn Root Worm); assay: Activity against Diabrotica balteata (corn root worm), maize sprouts sprayed; conditions: 96 h, application rate of 200 ppm, L2 larvae, 4 days after infestation, read-out: effect in at least one of the two categories (mortality or growth inhibition)
Method: Maize sprouts placed onto an agar layer in 24-well microtiter plates were treated with aqueous test solutions prepared from 10′000 ppm DMSO stock solutions by spraying. After drying, the plates were infested with L2 larvae (6 to 10 per well). The samples were assessed for mortality and growth inhibition in comparison to untreated samples 4 days after infestation.

[4] = tested on: Plutella xylostella (Diamond Back Moth); assay: Activity against Plutella xylostella (diamond back moth), artificial diet; conditions: 192 h, application rate of 200 ppm, eggs, 8 days after infestation, read-out: effect in at least one of the two categories (mortality or growth inhibition)
Method: 24-well microtiter plates with artificial diet were treated with aqueous test solutions prepared from 10′000 ppm DMSO stock solutions by pipetting. After drying, Plutella eggs were pipetted through a plastic stencil onto a gel blotting paper and the plate was closed with it. The samples were assessed for mortality and growth inhibition in comparison to untreated samples 8 days after infestation.

[5] = tested on: Spodoptera littoralis (Egyptian Cotton Leaf Worm); assay: Activity against Spodoptera littoralis (Egyptian cotton leaf worm), cotton leaf discs sprayed; conditions: foliar, 72 h, application rate of 200 ppm, L1 larvae, 3 days after infestation, read-out: control (mortality, anti-feeding effect, growth inhibition)
Method: Cotton leaf discs were placed onto agar in 24-well microtiter plates and sprayed with aqueous test solutions prepared from 10′000 ppm DMSO stock solutions. After drying the leaf discs were infested with five L1 larvae. The samples were assessed for mortality, anti-feeding effect, and growth inhibition in comparison to untreated samples 3 days after infestation. Control of Spodoptera littoralis by a test sample is given when at least one of the categories mortality, anti-feedant effect, and growth inhibition is higher than the untreated sample.

[6] = tested on: Euschistus heros (Neotropical Brown Stink Bug); assay: Activity against Euschistus heros (neotropical brown stink bug), soybean leaves sprayed; conditions: 120 h, application rate of 200 ppm, N2 nymphs, 5 days after infestation, read-out: effect in at least one of the two categories (mortality or growth inhibition)
Method: Soybean leaves on agar in 24-well microtiter plates were sprayed with aqueous test solutions prepared from 10′000 ppm DMSO stock solutions. After drying the leaves were infested with N2 nymphs. The samples were assessed for mortality and growth inhibition in comparison to untreated samples 5 days after infestation.

[7] = tested on: Carpocapsa (Cydia) Pomonella (Codling Moth); assay: Activity against Carpocapsa (Cydia) pomonella (codling moth), larvicide, feeding/contact; conditions: 336 h, application rate of 12.5 ppm, L1 larvae, 14 days after infestation, read-out: effect in at least one of the two categories (mortality or growth inhibition)
Method: Diet cubes coated with paraffin were sprayed with diluted test solutions in an application chamber. After drying off the treated cubes (10 replicates) were infested with 1 L1 larvae. Samples were incubated at 26-27° C. and checked 14 days after infestation for mortality and growth inhibition. The following compounds gave an effect of at least 80% in at least one of the two categories (mortality or growth inhibition) at an application rate of 12.5 ppm: P1, P2, P3, P5, P9, P10, P11, P12, P14, P17, P19, P20, P21, P23, P24, P30, P31.

[8] = tested on: Nilaparvata lugens (Brown Plant Hopper); assay: Activity against Nilaparvata lugens (brown plant hopper), larvicide, systemic into water; conditions: 168 h, application rate of 12.5 ppm, N3 nymphs, 7 days after infestation
Method: Larvicide, systemic into water Rice plants cultivated in a nutritive solution were treated with the diluted test solutions into nourishing cultivation system. 1 day after application plants were infested with ˜20 N3 nymphs. 7 days after infestation samples were assessed for mortality and growth regulation.

CCSc1cc(N(C)C(C)=O)cnc1-c1cc2c(cn1)N(CC(F)(F)C(F)(F)F)C(=O)CC2 [P7, N-[5-ethylsulfanyl-6-[2-oxo-1-(2,2,3,3,3-pentafluoropropyl)-3,4-dihydro-1,7-naphthyridin-6-yl]-3-pyridyl]-N-methyl-acetamide]
≥ 80%: mortality at 200 ppm [1]

CCSc1cc(OCC(C)(F)F)cnc1-c1cc2c(cn1)N(CC(F)(F)C(F)(F)F)C(=O)CC2 [P25, 6-[5-(2,2-difluoropropoxy)-3-ethylsulfanyl-2-pyridyl]-1-(2,2,3,3,3-pentafluoropropyl)-3,4-dihydro-1,7-naphthyridin-2-one]
≥ 80%: mortality at 200 ppm [2] | percent effect (mortality or growth inhibition) at 200 ppm [3] | percent effect (mortality or growth inhibition) at 200 ppm [4] | mortality at 200 ppm [5]

CCSc1cc(OCC(C)(F)F)cnc1-c1cc2c(cn1)N(CC(F)(F)C(F)(F)F)C(=O)OC2 [P27, 6-[5-(2,2-difluoropropoxy)-3-ethylsulfanyl-2-pyridyl]-1-(2,2,3,3,3-pentafluoropropyl)-4H-pyrido[3,4-d][1,3]oxazin-2-one]
≥ 80%: mortality at 200 ppm [2] | percent effect (mortality or growth inhibition) at 200 ppm [3] | percent effect (mortality or growth inhibition) at 200 ppm [6] | percent effect (mortality or growth inhibition) at 200 ppm [4] | mortality at 200 ppm [5]

CCS(=O)(=O)c1cc(C2CC2)cnc1-c1cc2c(cn1)N(CC(F)(F)C(F)(F)F)C(=O)CC2 [P19, 6-(5-cyclopropyl-3-ethylsulfonyl-2-pyridyl)-1-(2,2,3,3,3-pentafluoropropyl)-3,4-dihydro-1,7-naphthyridin-2-one]
≥ 80%: mortality at 200 ppm [2] | percent effect (mortality or growth inhibition) at 200 ppm [3] | percent effect (mortality or growth inhibition) at 200 ppm [4] | mortality at 200 ppm [5] | percent effect (mortality or growth inhibition) at 12.5 ppm [7] | mortality at 12.5 ppm [8]

CCS(=O)(=O)c1cc(OCC(C)(F)F)cnc1-c1cc2c(cn1)N(CC(F)(F)C(F)(F)F)C(=O)OC2 [P31, 6-[5-(2,2-difluoropropoxy)-3-ethylsulfonyl-2-pyridyl]-1-(2,2,3,3,3-pentafluoropropyl)-4H-pyrido[3,4-d][1,3]oxazin-2-one]
≥ 80%: mortality at 200 ppm [2] | percent effect (mortality or growth inhibition) at 200 ppm [3] | percent effect (mortality or growth inhibition) at 200 ppm [4] | mortality at 200 ppm [5] | percent effect (mortality or growth inhibition) at 12.5 ppm [7] | mortality at 12.5 ppm [8]

CCS(=O)(=O)c1ccc(-n2cncn2)nc1-c1cc2c(cn1)N(CC(F)(F)C(F)(F)F)C(=O)CC2 [P13, 6-[3-ethylsulfonyl-6-(1,2,4-triazol-1-yl)-2-pyridyl]-1-(2,2,3,3,3-pentafluoropropyl)-3,4-dihydro-1,7-naphthyridin-2-one]
≥ 80%: mortality at 200 ppm [2] | percent effect (mortality or growth inhibition) at 200 ppm [3] | mortality at 200 ppm [1] | percent effect (mortality or growth inhibition) at 200 ppm [4] | mortality at 200 ppm [5]

CCSc1cc(N(C)C(C)=O)cnc1-c1cc2c(cn1)N(CC(F)(F)C(F)(F)F)C(=O)OC2 [P29, N-[5-ethylsulfanyl-6-[2-oxo-1-(2,2,3,3,3-pentafluoropropyl)-4H-pyrido[3,4-d][1,3]oxazin-6-yl]-3-pyridyl]-N-methyl-acetamide]
≥ 80%: mortality at 200 ppm [2] | mortality at 200 ppm [1] | percent effect (mortality or growth inhibition) at 200 ppm [4] | mortality at 200 ppm [5]

CCSc1cc(C(F)(F)F)cnc1-c1cc2c(cn1)N(CC(F)(F)C(F)(F)F)C(=O)OC2 [P26, 6-[3-ethylsulfanyl-5-(trifluoromethyl)-2-pyridyl]-1-(2,2,3,3,3-pentafluoropropyl)-4H-pyrido[3,4-d][1,3]oxazin-2-one]
≥ 80%: mortality at 200 ppm [2] | percent effect (mortality or growth inhibition) at 200 ppm [3] | percent effect (mortality or growth inhibition) at 200 ppm [4]

CCSc1cc(C(C)(C)C#N)cnc1-c1cc2c(cn1)N(CC(F)(F)C(F)(F)F)C(=O)OC2 [P33, 2-[5-ethylsulfanyl-6-[2-oxo-1-(2,2,3,3,3-pentafluoropropyl)-4H-pyrido[3,4-d][1,3]oxazin-6-yl]-3-pyridyl]-2-methyl-propanenitrile]
≥ 80%: mortality at 200 ppm [2] | percent effect (mortality or growth inhibition) at 200 ppm [3] | percent effect (mortality or growth inhibition) at 200 ppm [6]

CCSc1cc(C2(C#N)CC2)cnc1-c1cc2c(cn1)N(CC(F)(F)F)C(=O)CC2 [P6, 1-[5-ethylsulfanyl-6-[2-oxo-1-(2,2,2-trifluoroethyl)-3,4-dihydro-1,7-naphthyridin-6-yl]-3-pyridyl]cyclopropanecarbonitrile]
≥ 80%: mortality at 200 ppm [2] | percent effect (mortality or growth inhibition) at 200 ppm [3] | percent effect (mortality or growth inhibition) at 200 ppm [6] | percent effect (mortality or growth inhibition) at 200 ppm [4] | mortality at 200 ppm [5]

CCS(=O)(=O)c1cc(-n2ccc(Cl)n2)cnc1-c1cc2c(cn1)N(CC(F)(F)C(F)(F)F)C(=O)CC2 [P5, 6-[5-(3-chloropyrazol-1-yl)-3-ethylsulfonyl-2-pyridyl]-1-(2,2,3,3,3-pentafluoropropyl)-3,4-dihydro-1,7-naphthyridin-2-one]
≥ 80%: mortality at 200 ppm [2] | percent effect (mortality or growth inhibition) at 200 ppm [3] | percent effect (mortality or growth inhibition) at 200 ppm [6] | percent effect (mortality or growth inhibition) at 200 ppm [4] | mortality at 200 ppm [5] | percent effect (mortality or growth inhibition) at 12.5 ppm [7]

CCS(=O)(=O)c1cc(Oc2ccccn2)cnc1-c1cc2c(cn1)N(CC(F)(F)C(F)(F)F)C(=O)CC2 [P21, 6-[3-ethylsulfonyl-5-(2-pyridyloxy)-2-pyridyl]-1-(2,2,3,3,3-pentafluoropropyl)-3,4-dihydro-1,7-naphthyridin-2-one]
≥ 80%: mortality at 200 ppm [2] | percent effect (mortality or growth inhibition) at 200 ppm [3] | percent effect (mortality or growth inhibition) at 200 ppm [6] | percent effect (mortality or growth inhibition) at 200 ppm [4] | mortality at 200 ppm [5] | percent effect (mortality or growth inhibition) at 12.5 ppm [7]

CCSc1cc(NC)cnc1-c1cc2c(cn1)N(CC(F)(F)C(F)(F)F)C(=O)OC2 [P28, 6-[3-ethylsulfanyl-5-(methylamino)-2-pyridyl]-1-(2,2,3,3,3-pentafluoropropyl)-4H-pyrido[3,4-d][1,3]oxazin-2-one]
≥ 80%: percent effect (mortality or growth inhibition) at 200 ppm [4]

CCSc1cc(C2(C#N)CC2)cnc1-c1cc2c(cn1)N(CC(F)(F)F)C(=O)OC2 [P35, 1-[5-ethylsulfanyl-6-[2-oxo-1-(2,2,2-trifluoroethyl)-4H-pyrido[3,4-d][1,3]oxazin-6-yl]-3-pyridyl]cyclopropanecarbonitrile]
≥ 80%: percent effect (mortality or growth inhibition) at 200 ppm [3] | percent effect (mortality or growth inhibition) at 200 ppm [4]

CC[S+]([O-])c1cc(OCC(C)(F)F)cnc1-c1cc2c(cn1)N(CC(F)(F)C(F)(F)F)C(=O)OC2 (centres unmarked) [P32, 6-[5-(2,2-difluoropropoxy)-3-ethylsulfinyl-2-pyridyl]-1-(2,2,3,3,3-pentafluoropropyl)-4H-pyrido[3,4-d][1,3]oxazin-2-one]
≥ 80%: percent effect (mortality or growth inhibition) at 200 ppm [3] | percent effect (mortality or growth inhibition) at 200 ppm [4] | mortality at 200 ppm [5]

CCS(=O)(=O)c1ccc(-n2cncn2)nc1-c1cc2c(cn1)N(CC(F)(F)C(F)(F)F)C(=O)OC2 [P16, 6-[3-ethylsulfonyl-6-(1,2,4-triazol-1-yl)-2-pyridyl]-1-(2,2,3,3,3-pentafluoropropyl)-4H-pyrido[3,4-d][1,3]oxazin-2-one]
≥ 80%: mortality at 200 ppm [2] | percent effect (mortality or growth inhibition) at 200 ppm [3] | mortality at 200 ppm [1] | percent effect (mortality or growth inhibition) at 200 ppm [4] | mortality at 200 ppm [5]
